Where a name gives a salt, the structure may show the parent alone.
Organism: Rattus norvegicus
Experiment: Open TG-GATES - Regimen: Single
Format: toxicity, organism-based, Sprague-Dawley
Design: regimen Single, gender Male, age 6 weeks
Conditions: in vivo, ip, 80 mg/kg, route intraperitoneal injection, dose level Low; for APTT / Bas / Eos / Fbg / Hb / Ht / Lym / MCH / MCHC / MCV / Mono / Neu / PT / Plat / RBC / Ret / WBC: tissue Blood; for KIDNEY_L / KIDNEY_R / KIDNEY_TOTAL: tissue Kidney; for LIVER: tissue Liver; for A/G / ALP / ALT / AST / BUN / CRE / Ca / Cl / DBIL / GLC / IP / K / LDH / Na / PL / RALB / TBIL / TC / TG / TP / gamma-GTP: tissue Plasma

SMILES: CCOC(=O)/C=C\C(=O)OCC [DIETHYL MALEATE]
- TERMINAL_BW (3 h): 197.8 g
- APTT (3 h): 16.6 s
- Bas (3 h): 0%
- Eos (3 h): 0.4%
- Fbg (3 h): 212.4 mg/dL
- Hb (3 h): 13.4 g/dL
- Ht (3 h): 40%
- Lym (3 h): 73.4%
- MCH (3 h): 22 pg
- MCHC (3 h): 33.5%
- MCV (3 h): 65.8 fL
- Mono (3 h): 6.6%
- Neu (3 h): 20%
- PT (3 h): 12.3 s
- Plat (3 h): 114.6 x10_4/uL
- RBC (3 h): 608.6 x10_4/ul
- Ret (3 h): 9.4%
- WBC (3 h): 97 x10_2/uL
- KIDNEY_L (3 h): 0.8 g
- KIDNEY_R (3 h): 0.9 g
- KIDNEY_TOTAL (3 h): 1.7 g
- LIVER (3 h): 9 g
- A/G (3 h): 1.9
- ALP (3 h): 802.4 IU/L
- ALT (3 h): 41.2 IU/L
- AST (3 h): 75.2 IU/L
- BUN (3 h): 14.8 mg/dL
- CRE (3 h): 0.5 mg/dL
- Ca (3 h): 11 mg/dL
- Cl (3 h): 106.6 meq/L
- DBIL (3 h): 0.032 mg/dL
- GLC (3 h): 194.2 mg/dL
- IP (3 h): 10.2 mg/dL
- K (3 h): 5.1 meq/L
- LDH (3 h): 80.8 IU/L
- Na (3 h): 140.4 meq/L
- PL (3 h): 150.4 mg/dL
- RALB (3 h): 3.6 g/dL
- TBIL (3 h): 0.4 mg/dL
- TC (3 h): 88 mg/dL
- TG (3 h): 33 mg/dL
- TP (3 h): 5.5 g/dL
- gamma-GTP (3 h): 1 IU/L
- TERMINAL_BW (6 h): 197.1 g
- APTT (6 h): 16.8 s
- Bas (6 h): 0%
- Eos (6 h): 0.6%
- Fbg (6 h): 207.2 mg/dL
- Hb (6 h): 13.1 g/dL
- Ht (6 h): 39.2%
- Lym (6 h): 76.2%
- MCH (6 h): 21.9 pg
- MCHC (6 h): 33.4%
- MCV (6 h): 65.4 fL
- Mono (6 h): 5.2%
- Neu (6 h): 17.8%
- PT (6 h): 12.2 s
- Plat (6 h): 116.6 x10_4/uL
- RBC (6 h): 599.8 x10_4/ul
- Ret (6 h): 9.5%
- WBC (6 h): 108.8 x10_2/uL
- KIDNEY_L (6 h): 0.9 g
- KIDNEY_R (6 h): 0.9 g
- KIDNEY_TOTAL (6 h): 1.7 g
- LIVER (6 h): 8.4 g
- A/G (6 h): 1.9
- ALP (6 h): 753.2 IU/L
- ALT (6 h): 36.4 IU/L
- AST (6 h): 76.2 IU/L
- BUN (6 h): 13 mg/dL
- CRE (6 h): 0.5 mg/dL
- Ca (6 h): 10.7 mg/dL
- Cl (6 h): 106.8 meq/L
- DBIL (6 h): 0.002 mg/dL
- GLC (6 h): 194 mg/dL
- IP (6 h): 10 mg/dL
- K (6 h): 4.8 meq/L
- LDH (6 h): 91 IU/L
- Na (6 h): 139.2 meq/L
- PL (6 h): 131.4 mg/dL
- RALB (6 h): 3.4 g/dL
- TBIL (6 h): 0.5 mg/dL
- TC (6 h): 73.4 mg/dL
- TG (6 h): 46 mg/dL
- TP (6 h): 5.3 g/dL
- gamma-GTP (6 h): 1 IU/L
- TERMINAL_BW (9 h): 197.4 g
- APTT (9 h): 16.7 s
- Bas (9 h): 0%
- Eos (9 h): 0.8%
- Fbg (9 h): 223.2 mg/dL
- Hb (9 h): 12.9 g/dL
- Ht (9 h): 38.5%
- Lym (9 h): 71.4%
- MCH (9 h): 21.7 pg
- MCHC (9 h): 33.6%
- MCV (9 h): 64.7 fL
- Mono (9 h): 3.8%
- Neu (9 h): 24%
- PT (9 h): 11.7 s
- Plat (9 h): 117.4 x10_4/uL
- RBC (9 h): 596.2 x10_4/ul
- Ret (9 h): 9.2%
- WBC (9 h): 102 x10_2/uL
- KIDNEY_L (9 h): 0.8 g
- KIDNEY_R (9 h): 0.9 g
- KIDNEY_TOTAL (9 h): 1.7 g
- LIVER (9 h): 8 g
- A/G (9 h): 2.2
- ALP (9 h): 735 IU/L
- ALT (9 h): 35.2 IU/L
- AST (9 h): 73.4 IU/L
- BUN (9 h): 12.6 mg/dL
- CRE (9 h): 0.4 mg/dL
- Ca (9 h): 10.5 mg/dL
- Cl (9 h): 107.2 meq/L
- DBIL (9 h): 0.026 mg/dL
- GLC (9 h): 204.6 mg/dL
- IP (9 h): 9.6 mg/dL
- K (9 h): 4.7 meq/L
- LDH (9 h): 89.4 IU/L
- Na (9 h): 139.6 meq/L
- PL (9 h): 137.8 mg/dL
- RALB (9 h): 3.6 g/dL
- TBIL (9 h): 0.3 mg/dL
- TC (9 h): 79.4 mg/dL
- TG (9 h): 41 mg/dL
- TP (9 h): 5.3 g/dL
- gamma-GTP (9 h): 1.4 IU/L
- TERMINAL_BW (24 h): 209.5 g
- APTT (24 h): 15.5 s
- Bas (24 h): 0%
- Eos (24 h): 0.8%
- Fbg (24 h): 225.8 mg/dL
- Hb (24 h): 12.9 g/dL
- Ht (24 h): 38.7%
- Lym (24 h): 79.4%
- MCH (24 h): 21.6 pg
- MCHC (24 h): 33.4%
- MCV (24 h): 64.7 fL
- Mono (24 h): 4.6%
- Neu (24 h): 15.2%
- PT (24 h): 11.8 s
- Plat (24 h): 123.2 x10_4/uL
- RBC (24 h): 598.4 x10_4/ul
- Ret (24 h): 9.8%
- WBC (24 h): 94.6 x10_2/uL
- KIDNEY_L (24 h): 0.9 g
- KIDNEY_R (24 h): 0.9 g
- KIDNEY_TOTAL (24 h): 1.8 g
- LIVER (24 h): 10 g
- A/G (24 h): 2.1
- ALP (24 h): 887.2 IU/L
- ALT (24 h): 36 IU/L
- AST (24 h): 63.6 IU/L
- BUN (24 h): 17.4 mg/dL
- CRE (24 h): 0.5 mg/dL
- Ca (24 h): 11.1 mg/dL
- Cl (24 h): 106 meq/L
- DBIL (24 h): 0.03 mg/dL
- GLC (24 h): 195.8 mg/dL
- IP (24 h): 8 mg/dL
- K (24 h): 5 meq/L
- LDH (24 h): 94.4 IU/L
- Na (24 h): 139.6 meq/L
- PL (24 h): 148.8 mg/dL
- RALB (24 h): 3.7 g/dL
- TBIL (24 h): 0.3 mg/dL
- TC (24 h): 82.6 mg/dL
- TG (24 h): 93 mg/dL
- TP (24 h): 5.5 g/dL
- gamma-GTP (24 h): 1.6 IU/L

— ChEMBL document CHEMBL3885861, “Open TG-GATES”
